Assay results reported in patent US7582418B2, “Antimicrobial chelates” (Albion Laboratories, Inc., priority 2004, dated 2009).

How the values were obtained:
Format in all cases: cell-based
Candida albicans [1] = test: Zone inhibition assay (filter paper disc area diffusion); conditions: distance from edge of disc to growth; discs saturated with 100 mg/ml solution (antibiotic control discs 5-30 μg); 24 hours at 37° C.
Procedure: (§1) Two methods were used to examine whether an inhibitory effect from the zinc containing compounds was observable and if there was an inhibitory effect, whether the effect was bactericidal (bacteria-killing) or bacteriostatic (bacterial-inhibiting) in nature. In the first method, two Gram-positive bacteria strains (Staphlococcus aureus, Streptococcus pyogenes), two Gram-negative bacteria strains (Salmonella typhimerium, Eschrichia coli), and one common yeast strain (Candida albicans) were grown nutrient agar plates, except in the case of S. pyogenes which was grown on blood agar plates.
(§2) Zone inhibition assays were conducted with eighteen different samples in accordance with the methodology described by Maruzella, J. C. and Henry, P. A., J. Am. Pharm. Assoc. 47:894 (1958) for filter paper disc area diffusion. Sample solutions were prepared to approximate 100 mg/mL concentrations.
(§3) Organisms were grown for 24 hours at 37° C. on blood agar plates with the exception of Candida albicans which was grown in a standard methods agar (SMA) medium. Solutions of each sample were prepared using sterile DD water at a concentration of 100 mg/ml. Paper discs were saturated with solution from each sample and dried aseptically. […] Following drying of solution derived discs, all discs were placed on agar plates with each of the five different microorganisms.

Eschrichia coli [2] = test: as above; conditions: distance from edge of disc to bacterial growth; discs saturated with 100 mg/ml solution (antibiotic control discs 5-30 μg); 24 hours at 37° C.
Procedure: as §1, §2, §3

Salmonella typhimerium = test: as above; conditions: distance from edge of disc to bacterial growth; discs saturated with 100 mg/ml solution (antibiotic control discs 5-30 μg); 24 hours at 37° C.
Procedure: as §1, §2, §3

Staphlococcus aureus [3] = test: as above; conditions: distance from edge of disc to bacterial growth; discs saturated with 100 mg/ml solution (antibiotic control discs 5-30 μg); 24 hours at 37° C.
Procedure: as §1, §2, §3

Streptococcus pyogenes = test: as above; conditions: distance from edge of disc to bacterial growth; blood agar; discs saturated with 100 mg/ml solution (antibiotic control discs 5-30 μg); 24 hours at 37° C.
Procedure: as §1, §2, §3

Candida albicans [4] = test: Turbidity assay (TSB tubes, plated out); set-up: key: no-growth (NG) which corresponds with excellent inhibitory activity; partial growth (PG) which corresponds with good inhibitory activity; complete growth (CG) which corresponds with little or no inhibitory activity; conditions: TSB tube with 1.0 mL sample solution (100 mg/mL) and 100 μL 24-hour culture; after 24 hours plated, incubated 24 hours
Procedure: (§4) In the second method, turbidity assays were conducted. Tryptic soy broth (TSB) tubes were inoculated with 1.0 mL of sample solutions (100 mg/mL) and 50 μL of 24-hour cultures of each microbe. In the case of C. albicans, 100 μL of 24-hour culture was used. After 24 hours, an aliquot from each tube was plated out onto nutrient media and incubated for 24 hours. Following incubation, colonies on each plate were observed and characterized as one of three categories: no-growth (NG) which corresponds with excellent inhibitory activity, partial growth (PG) which corresponds with good inhibitory activity, complete growth (CG) which corresponds with little or no inhibitory activity.
(§5) S. pyongenes, could not be grown in the solution, so the turbidity assay was not conducted for that microorganism. When the data from both zone inhibition (Table 2) and turbidity (Table 3) assays are compared, an indication of the inhibition activity may be evident.

Eschrichia coli [5] = test: Turbidity assay (TSB tubes, plated out); set-up: key: no-growth (NG) which corresponds with excellent inhibitory activity; partial growth (PG) which corresponds with good inhibitory activity; complete growth (CG) which corresponds with little or no inhibitory activity; conditions: TSB tube with 1.0 mL sample solution (100 mg/mL) and 50 μL 24-hour culture; after 24 hours plated, incubated 24 hours
Procedure: as §4, §5

Staphlococcus aureus [6] = test: Turbidity assay (TSB tubes, plated out); set-up: key: no-growth (NG) which corresponds with excellent inhibitory activity; partial growth (PG) which corresponds with good inhibitory activity; complete growth (CG) which corresponds with little or no inhibitory activity; conditions: TSB tube with 1.0 mL sample solution (100 mg/mL) and 50 μL 24-hour culture; after 24 hours plated, incubated 24 hours
Procedure: as §4, §5

Row | Compound | inhibitory zone, Candida albicans (Candida albicans [1]) | inhibitory zone, Eschrichia coli (Eschrichia coli [2]) | inhibitory zone, Salmonella typhimerium (Salmonella typhimerium) | inhibitory zone, Staphlococcus aureus (Staphlococcus aureus [3]) | inhibitory zone, Streptococcus pyogenes (Streptococcus pyogenes) | colony growth category, Candida albicans (Candida albicans [4]) | colony growth category, Eschrichia coli (Eschrichia coli [5]) | colony growth category, Staphlococcus aureus (Staphlococcus aureus [6])
1 | [Cl-].[Cl-].[Zn+2] [Sample 1, Zinc Chloride] | 4.5 millimeters | 4 millimeters | 3.5 millimeters | 6 millimeters | 2.5 millimeters | PG | PG | PG
2 | O=C([O-])CC(O)(CC(=O)[O-])C(=O)[O-].O=C([O-])CC(O)(CC(=O)[O-])C(=O)[O-].[Zn+2].[Zn+2].[Zn+2] [Sample 2, Zinc Citrate] | no activity | 1.5 millimeters | – | 1 millimeters | 3.5 millimeters | – | – | –
3 | CC(=O)[O-].CC(=O)[O-].[Zn+2] [Sample 3, Zinc Acetate] | 2 millimeters | 3 millimeters | 3 millimeters | 2 millimeters | 3.5 millimeters | – | – | –
4 | O=S(=O)([O-])[O-].[Zn+2] [Sample 4, Zinc Sulfate] | 2 millimeters | 3.5 millimeters | 3 millimeters | 3.7 millimeters | 2 millimeters | CG | CG | CG
5 | NCC(=O)[O-].NCC(=O)[O-].[Zn+2] [Sample 5, Zinc Bis-Glycinate] | 0.5 millimeters | 3.5 millimeters | 3.5 millimeters | 3.5 millimeters | 4 millimeters | NG | NG | PG (1)
6 | O=C([O-])CCCCC1CCSS1.O=C([O-])CCCCC1CCSS1.[Zn+2] (centres unmarked) [Sample 6, Zinc Lipoate] | no activity | .5 millimeters | 2 millimeters | 1.5 millimeters | 1 millimeters | – | – | –
7 | NC[C@@H]1O[C@H](O[C@H]2[C@@H](O)[C@H](O[C@@H]3[C@@H](O)[C@H](N)C[C@H](N)[C@H]3O[C@H]3O[C@H](CN)[C@@H](O)[C@H](O)[C@H]3N)O[C@@H]2CO)[C@H](N)[C@@H](O)[C@@H]1O [Sample 8, Neomycin] | no activity | 3 millimeters | 6 millimeters | 6 millimeters | 3 millimeters | – | – | –
8 | O=C(O)c1cn(C2CC2)c2cc(N3CCNCC3)c(F)cc2c1=O [Sample 9, Ciproflaxicin] | no activity | 5 millimeters | 10 millimeters | 8.5 millimeters | 3 millimeters | – | – | –
9 | CC1(C)S[C@@H]2[C@H](NC(=O)[C@H](N)c3ccc(O)cc3)C(=O)N2[C@H]1C(=O)O [Sample 10, Amoxicillin] | no activity | 3.5 millimeters | 8 millimeters | 7.5 millimeters | – | – | – | –
10 | CN(C)[C@@H]1C(O)=C(C(N)=O)C(=O)[C@@]2(O)C(O)=C3C(=O)c4c(O)cccc4[C@@](C)(O)[C@H]3C[C@@H]12 [Sample 11, Tetracycline] | no activity | 5.5 millimeters | 7 millimeters | 7.5 millimeters | no activity | – | – | –
11 | CN[C@H](CC(C)C)C(=O)N[C@H]1C(=O)N[C@@H](CC(N)=O)C(=O)N[C@H]2C(=O)N[C@H]3C(=O)N[C@H](C(=O)N[C@H](C(=O)O)c4cc(O)cc(O)c4-c4cc3ccc4O)[C@H](O)c3ccc(c(Cl)c3)Oc3cc2cc(c3O[C@@H]2O[C@H](CO)[C@@H](O)[C@H](O)[C@H]2O[C@H]2C[C@](C)(N)[C@H](O)[C@H](C)O2)Oc2ccc(cc2Cl)[C@H]1O [Sample 13, Vancomycin] | no activity | no activity | no activity | 5 millimeters | 5 millimeters | – | – | –
12 | [Cl-].[Na+] [Sample 14, Sodium Chloride] | no activity | no activity | no activity | no activity | no activity | – | – | –
13 | NCC(=O)[O-].[Na+] [Sample 16, Sodium Glycinate] | no activity | no activity | no activity | no activity | no activity | – | – | –
14 | O=S(=O)([O-])[O-].[Na+].[Na+] [Sample 17, Sodium Sulfate] | no activity | no activity | no activity | no activity | no activity | – | – | –
15 | O=C([O-])CC(O)(CC(=O)[O-])C(=O)[O-].[Na+].[Na+].[Na+] [Sample 18, Sodium Citrate] | no activity | no activity | – | no activity | no activity | – | – | –
16 | Zinc Gluconate [Sample 7] | no activity | 2 millimeters | 2.75 millimeters | 3 millimeters | 5 millimeters | – | – | –
